Results from patent US9708314B2, “Heterocyclic amide compound” (NISSAN CHEMICAL INDUSTRIES, LTD., priority 2013, dated 2017).

How the values were obtained:
Type in all cases: in vivo
[1] = test system: Echinochloa crus-galli var. crus-galli; test: Test Example 3: herbicidal effect by application to foliage (Wagner pot, water depth 0.1-0.5 cm); conditions: Nineteenth Table; application to foliage; application herbicide amount 320 g/ha
Summary of the method: (§1)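 Alluvial soil in 1/10000 are Wagner pots, sown and grown 14 days in a 25–30 °C greenhouse. An emulsifiable concentrate diluted in water to the set dose (g/ha) was sprayed on stems and leaves. Effect scored three weeks later on a 0–5 scale: 5 = ≥90% herbicidal ratio, 0 = ≤5%.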

[2] = test system: Leptochloa chinensis; test: as above; conditions: Nineteenth Table; application to foliage; application herbicide amount 320 g/ha
Summary of the method: as §1

[3] = test system: Cyperus difformis; test: as above; conditions: Nineteenth Table; application to foliage; application herbicide amount 320 g/ha
Summary of the method: as §1

[4] = test system: Apera spica-venti.; test: Test Example 4: herbicidal effect by application to foliage (diluvial soil, plastic box); conditions: Application herbicide amount 320 g/ha
Summary of the method: (§2)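 Seeds sown in sterilized diluvial soil, covered ~1.5 cm, grown 14 days in greenhouse at 25° C. to 30° C. Emulsion formulation diluted in water to set rate (g/ha) and sprayed onto stems and leaves. Effect scored visually 3 weeks later on 0–5 scale (5 = ≥90% herbicidal ratio, 0 = ≤5%).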

[5] = test system: Abutilon theophrasti; test: as above; conditions: Application herbicide amount 320 g/ha
Summary of the method: as §2

[6] = test system: Lolium multiflorum Lam.; test: as above; conditions: Application herbicide amount 320 g/ha
Summary of the method: as §2

[7] = test system: Galium spurium; test: as above; conditions: Application herbicide amount 320 g/ha
Summary of the method: as §2

[8] = test system: Digitaria ciliaris; test: as above; conditions: Application herbicide amount 320 g/ha
Summary of the method: as §2

[9] = test system: Chenopodium album; test: as above; conditions: Application herbicide amount 320 g/ha
Summary of the method: as §2

[10] = test system: Setaria viridis; test: as above; conditions: Application herbicide amount 320 g/ha
Summary of the method: as §2

[11] = test system: Alopecurus myosuroides; test: as above; conditions: Application herbicide amount 320 g/ha
Summary of the method: as §2

[12] = test system: Veronica persica; test: as above; conditions: Application herbicide amount 320 g/ha
Summary of the method: as §2

[13] = test system: Echinochloa crus-galli var. crus-galli; test: as above; conditions: Application herbicide amount 320 g/ha
Summary of the method: as §2

[14] = test system: Avena fatua; test: as above; conditions: Application herbicide amount 320 g/ha
Summary of the method: as §2

[15] = test system: directly sowed Oryza sativa; test: Test Example 3: effect on crop by application to foliage (Wagner pot, water depth 0.1-0.5 cm); conditions: Nineteenth Table; application to foliage; application herbicide amount 320 g/ha
Summary of the method: as §1

Row | Structure (SMILES) | H (herbicidal effect grade) [1] | D (herbicidal effect grade) [2] | E (herbicidal effect grade) [3] | L [4] | M [5] | K [6] | Q [7] | F [8] | O [9] | G [10] | J [11] | R [12] | H [13] | I [14] | b (effect on crop grade) [15]
1 | Cc1nnc(NC(=O)c2ccc(C(F)(F)F)n3c(CO)nnc23)o1 [1-067] | 5 (Herbicidal ratio of 90% or more (almost completely withered)) | 5 (Herbicidal ratio of 90% or more (almost completely withered)) | 5 (Herbicidal ratio of 90% or more (almost completely withered)) | 0 (Herbicidal ratio of 5% or less (almost no effect)) | 4 (Herbicidal ratio of 70% or more and less than 90%) | 0 (Herbicidal ratio of 5% or less (almost no effect)) | 3 (Herbicidal ratio of 40% or more and less than 70%) | 5 (Herbicidal ratio of 90% or more (almost completely withered)) | 5 (Herbicidal ratio of 90% or more (almost completely withered)) | 4 (Herbicidal ratio of 70% or more and less than 90%) | 0 (Herbicidal ratio of 5% or less (almost no effect)) | 4 (Herbicidal ratio of 70% or more and less than 90%) | 5 (Herbicidal ratio of 90% or more (almost completely withered)) | 1 (Herbicidal ratio of 5% or more and less than 20%) | 2 (Herbicidal ratio of 20% or more and less than 40%)
2 | Cc1nnc(NC(=O)c2ccc(C(F)(F)F)n3c(C=O)nnc23)o1 [1-068] | 5 (Herbicidal ratio of 90% or more (almost completely withered)) | 5 (Herbicidal ratio of 90% or more (almost completely withered)) | 5 (Herbicidal ratio of 90% or more (almost completely withered)) | 1 (Herbicidal ratio of 5% or more and less than 20%) | 3 (Herbicidal ratio of 40% or more and less than 70%) | 1 (Herbicidal ratio of 5% or more and less than 20%) | 3 (Herbicidal ratio of 40% or more and less than 70%) | 5 (Herbicidal ratio of 90% or more (almost completely withered)) | 5 (Herbicidal ratio of 90% or more (almost completely withered)) | 4 (Herbicidal ratio of 70% or more and less than 90%) | 1 (Herbicidal ratio of 5% or more and less than 20%) | 4 (Herbicidal ratio of 70% or more and less than 90%) | 5 (Herbicidal ratio of 90% or more (almost completely withered)) | 1 (Herbicidal ratio of 5% or more and less than 20%) | 1 (Herbicidal ratio of 5% or more and less than 20%)
3 | Cc1nnc(NC(=O)c2ccc(C(F)(F)F)n3c(-c4cc(Cl)cc(Cl)c4)nnc23)o1 [1-071] | 0 (Herbicidal ratio of 5% or less (almost no effect)) | 3 (Herbicidal ratio of 40% or more and less than 70%) | 5 (Herbicidal ratio of 90% or more (almost completely withered)) | 0 (Herbicidal ratio of 5% or less (almost no effect)) | 3 (Herbicidal ratio of 40% or more and less than 70%) | 0 (Herbicidal ratio of 5% or less (almost no effect)) | 1 (Herbicidal ratio of 5% or more and less than 20%) | 1 (Herbicidal ratio of 5% or more and less than 20%) | 5 (Herbicidal ratio of 90% or more (almost completely withered)) | 0 (Herbicidal ratio of 5% or less (almost no effect)) | 0 (Herbicidal ratio of 5% or less (almost no effect)) | 3 (Herbicidal ratio of 40% or more and less than 70%) | 0 (Herbicidal ratio of 5% or less (almost no effect)) | 0 (Herbicidal ratio of 5% or less (almost no effect)) | 0 (Herbicidal ratio of 5% or less (almost no effect))
4 | Cc1nnc(NC(=O)c2cc(C)c(C(F)(F)F)n3c(C(C)C)nnc23)o1 [1-075] | 5 (Herbicidal ratio of 90% or more (almost completely withered)) | 4 (Herbicidal ratio of 70% or more and less than 90%) | 4 (Herbicidal ratio of 70% or more and less than 90%) | 0 (Herbicidal ratio of 5% or less (almost no effect)) | 1 (Herbicidal ratio of 5% or more and less than 20%) | 0 (Herbicidal ratio of 5% or less (almost no effect)) | 0 (Herbicidal ratio of 5% or less (almost no effect)) | 3 (Herbicidal ratio of 40% or more and less than 70%) | 5 (Herbicidal ratio of 90% or more (almost completely withered)) | 1 (Herbicidal ratio of 5% or more and less than 20%) | 0 (Herbicidal ratio of 5% or less (almost no effect)) | 3 (Herbicidal ratio of 40% or more and less than 70%) | 3 (Herbicidal ratio of 40% or more and less than 70%) | 0 (Herbicidal ratio of 5% or less (almost no effect)) | 1 (Herbicidal ratio of 5% or more and less than 20%)
5 | Cc1nnc(NC(=O)c2ccc(C(F)(F)F)n3c(N(C)C)nnc23)o1 [1-076] | 5 (Herbicidal ratio of 90% or more (almost completely withered)) | 5 (Herbicidal ratio of 90% or more (almost completely withered)) | 5 (Herbicidal ratio of 90% or more (almost completely withered)) | 4 (Herbicidal ratio of 70% or more and less than 90%) | 4 (Herbicidal ratio of 70% or more and less than 90%) | 3 (Herbicidal ratio of 40% or more and less than 70%) | 2 (Herbicidal ratio of 20% or more and less than 40%) | 5 (Herbicidal ratio of 90% or more (almost completely withered)) | 5 (Herbicidal ratio of 90% or more (almost completely withered)) | 5 (Herbicidal ratio of 90% or more (almost completely withered)) | 3 (Herbicidal ratio of 40% or more and less than 70%) | 4 (Herbicidal ratio of 70% or more and less than 90%) | 5 (Herbicidal ratio of 90% or more (almost completely withered)) | 3 (Herbicidal ratio of 40% or more and less than 70%) | 3 (Herbicidal ratio of 40% or more and less than 70%)
6 | C#CC[S+]([O-])c1nnc2c(C(=O)Nc3nnc(C)o3)ccc(C(F)(F)F)n12 (stereo not drawn) [1-077] | 5 (Herbicidal ratio of 90% or more (almost completely withered)) | 4 (Herbicidal ratio of 70% or more and less than 90%) | 3 (Herbicidal ratio of 40% or more and less than 70%) | 0 (Herbicidal ratio of 5% or less (almost no effect)) | 2 (Herbicidal ratio of 20% or more and less than 40%) | 0 (Herbicidal ratio of 5% or less (almost no effect)) | 1 (Herbicidal ratio of 5% or more and less than 20%) | 4 (Herbicidal ratio of 70% or more and less than 90%) | 5 (Herbicidal ratio of 90% or more (almost completely withered)) | 2 (Herbicidal ratio of 20% or more and less than 40%) | 0 (Herbicidal ratio of 5% or less (almost no effect)) | 3 (Herbicidal ratio of 40% or more and less than 70%) | 4 (Herbicidal ratio of 70% or more and less than 90%) | 0 (Herbicidal ratio of 5% or less (almost no effect)) | 0 (Herbicidal ratio of 5% or less (almost no effect))
7 | Cc1nnc(NC(=O)c2ccc(C(F)(F)F)n3c(Nc4ccccc4)nnc23)o1 [1-082] | 4 (Herbicidal ratio of 70% or more and less than 90%) | 4 (Herbicidal ratio of 70% or more and less than 90%) | 4 (Herbicidal ratio of 70% or more and less than 90%) | 1 (Herbicidal ratio of 5% or more and less than 20%) | 4 (Herbicidal ratio of 70% or more and less than 90%) | 1 (Herbicidal ratio of 5% or more and less than 20%) | 0 (Herbicidal ratio of 5% or less (almost no effect)) | 4 (Herbicidal ratio of 70% or more and less than 90%) | 5 (Herbicidal ratio of 90% or more (almost completely withered)) | 3 (Herbicidal ratio of 40% or more and less than 70%) | 0 (Herbicidal ratio of 5% or less (almost no effect)) | 4 (Herbicidal ratio of 70% or more and less than 90%) | 4 (Herbicidal ratio of 70% or more and less than 90%) | 0 (Herbicidal ratio of 5% or less (almost no effect)) | 0 (Herbicidal ratio of 5% or less (almost no effect))
